Data: patent US10004701B2, “Methods and compositions for treating infection” (UNIVERSITY OF ROCHESTER, priority 2012, dated 2018)
Where a name gives a salt, the structure may show the parent alone. Read-outs that look alike come from different tables or passages of the source.

Assays:
Test in all cases: AK assay 384-well format, Prestwick library screening
E. faecium = format: cell-based, Enterococcus faecium; details: 50 μM final drug concentration; for fold induction at 50 µM: Enterococcus faecium, 3 h
[1] = system: S. aureus strain USA300-0114; format: cell-based, Staphylococcus aureus; details: 50 μM final drug concentration; for fold induction at 50 µM: Staphylococcus aureus, USA300, 3 h
K. pneumoniae = format: cell-based, Klebsiella pneumoniae; details: 50 μM final drug concentration; for fold induction at 50 µM: Klebsiella pneumoniae, 3 h
[2] = system: A. baumannii strain 98-37-09; format: cell-based, Acinetobacter baumannii; details: 50 μM final drug concentration; for fold induction at 50 µM: Acinetobacter baumannii, 983709, 3 h
P. aeruginosa = format: cell-based, Pseudomonas aeruginosa; details: 50 μM final drug concentration; for fold induction at 50 µM: Pseudomonas aeruginosa, 3 h
E. cloacae = format: cell-based, Enterobacter cloacae; details: 50 μM final drug concentration; for fold induction at 50 µM: Enterobacter cloacae, 3 h
E. coli = format: cell-based, Escherichia coli; details: 50 μM final drug concentration; for fold induction at 50 µM: Escherichia coli, 3 h
[3] = planktonic E. faecium, cutoff for positive-scoring molecules 3-fold increase, read-out: AK-based Prestwick Library Screening Results, E. faecium (increase in extracellular AK activity)
[4] = planktonic S. aureus, cutoff for positive-scoring molecules 3-fold increase, read-out: AK-based Prestwick Library Screening Results, S. aureus (increase in extracellular AK activity)
[5] = planktonic K. pneumoniae, cutoff for positive-scoring molecules 3-fold increase, read-out: AK-based Prestwick Library Screening Results, K. pneumoniae (increase in extracellular AK activity)
[6] = planktonic A. baumannii, cutoff for positive-scoring molecules 3-fold increase, read-out: AK-based Prestwick Library Screening Results, A. baumannii (increase in extracellular AK activity)
[7] = planktonic P. aeruginosa, cutoff for positive-scoring molecules 3-fold increase, read-out: AK-based Prestwick Library Screening Results, P. aeruginosa (increase in extracellular AK activity)
[8] = planktonic E. cloacae, cutoff for positive-scoring molecules 3-fold increase, read-out: AK-based Prestwick Library Screening Results, E. cloacae (increase in extracellular AK activity)
[9] = planktonic E. coli, cutoff for positive-scoring molecules 3-fold increase, read-out: AK-based Prestwick Library Screening Results, E. coli (increase in extracellular AK activity)
[10] = cutoff for positive-scoring molecules 3-fold increase, read-out: AK-based Prestwick Library Screening Results, E. faecium (fold increase in extracellular AK activity)
[11] = cutoff for positive-scoring molecules 3-fold increase, read-out: AK-based Prestwick Library Screening Results, S. aureus (fold increase in extracellular AK activity)
[12] = cutoff for positive-scoring molecules 3-fold increase, read-out: AK-based Prestwick Library Screening Results, K. pneumoniae (fold increase in extracellular AK activity)
[13] = cutoff for positive-scoring molecules 3-fold increase, read-out: AK-based Prestwick Library Screening Results, A. baumannii (fold increase in extracellular AK activity)
[14] = cutoff for positive-scoring molecules 3-fold increase, read-out: AK-based Prestwick Library Screening Results, P. aeruginosa (fold increase in extracellular AK activity)
[15] = cutoff for positive-scoring molecules 3-fold increase, read-out: AK-based Prestwick Library Screening Results, E. cloacae (fold increase in extracellular AK activity)
[16] = cutoff for positive-scoring molecules 3-fold increase, read-out: AK-based Prestwick Library Screening Results, E. coli (fold increase in extracellular AK activity)
[17] = 384-well format, cutoff for positive-scoring molecules 3-fold increase, read-out: AK-based Prestwick Library Screening Results, E. faecium (increase in extracellular AK activity)
[18] = 384-well format, cutoff for positive-scoring molecules 3-fold increase, read-out: AK-based Prestwick Library Screening Results, S. aureus (increase in extracellular AK activity)
[19] = 384-well format, cutoff for positive-scoring molecules 3-fold increase, read-out: AK-based Prestwick Library Screening Results, K. pneumoniae (increase in extracellular AK activity)
[20] = 384-well format, cutoff for positive-scoring molecules 3-fold increase, read-out: AK-based Prestwick Library Screening Results, A. baumannii (increase in extracellular AK activity)
[21] = 384-well format, cutoff for positive-scoring molecules 3-fold increase, read-out: AK-based Prestwick Library Screening Results, P. aeruginosa (increase in extracellular AK activity)
[22] = 384-well format, cutoff for positive-scoring molecules 3-fold increase, read-out: AK-based Prestwick Library Screening Results, E. cloacae (increase in extracellular AK activity)
[23] = 384-well format, cutoff for positive-scoring molecules 3-fold increase, read-out: AK-based Prestwick Library Screening Results, E. coli (increase in extracellular AK activity)
[24] = cutoff for positive-scoring molecules 3-fold increase

With `O=c1[nH]c2ccccc2n1CCCN1CCC(n2c(=O)[nH]c3cc(Cl)ccc32)CC1` [Domperidone] the fold induction at 50 µM (E. faecium; [3]) was 0.9, the fold induction at 50 µM [1, 4] was 0.8 and the fold induction at 50 µM (K. pneumoniae; [5]) was 0.6. For the same molecule, the fold induction at 50 µM [2, 6] was 0.7, the fold induction at 50 µM (P. aeruginosa; [7]) was 0.6 and the fold induction at 50 µM (E. cloacae; [8]) was 0.8. It also gave a fold induction at 50 µM (E. coli; [9]) of 0.6.
Molecule `CCN[C@H]1C[C@H](C)S(=O)(=O)c2sc(S(N)(=O)=O)cc21` [Dorzolamide hydrochloride] has a fold induction at 50 µM (E. faecium; planktonic E. faecium, positive cutoff 3-fold increase, read-out: AK-based Prestwick library screening result, E. faecium (fold increase in extracellular AK activity)) of 2.3, a fold induction at 50 µM ([1]; planktonic S. aureus, positive cutoff 3-fold increase, read-out: AK-based Prestwick library screening result, S. aureus (fold increase in extracellular AK activity)) of 1 and a fold induction at 50 µM (K. pneumoniae; planktonic K. pneumoniae, positive cutoff 3-fold increase, read-out: AK-based Prestwick library screening result, K. pneumoniae (fold increase in extracellular AK activity)) of 1.1. For the same molecule, the fold induction at 50 µM ([2]; planktonic A. baumannii, positive cutoff 3-fold increase, read-out: AK-based Prestwick library screening result, A. baumannii (fold increase in extracellular AK activity)) was 1.2, the fold induction at 50 µM (P. aeruginosa; planktonic P. aeruginosa, positive cutoff 3-fold increase, read-out: AK-based Prestwick library screening result, P. aeruginosa (fold increase in extracellular AK activity)) was 0.9 and the fold induction at 50 µM (E. cloacae; planktonic E. cloacae, positive cutoff 3-fold increase, read-out: AK-based Prestwick library screening result, E. cloacae (fold increase in extracellular AK activity)) was 1.3. The fold induction at 50 µM (E. coli; planktonic E. coli, positive cutoff 3-fold increase, read-out: AK-based Prestwick library screening result, E. coli (fold increase in extracellular AK activity)) was 1.1.
Molecule `CN(C)CC/C=C1\c2ccccc2CSc2ccccc21` [Dosulepin hydrochloride] has a fold induction at 50 µM (E. faecium; [3]) of 0.9, a fold induction at 50 µM [1, 4] of 0.5 and a fold induction at 50 µM (K. pneumoniae; [5]) of 0.5. It also gave a fold induction at 50 µM [2, 6] of 0.5, a fold induction at 50 µM (P. aeruginosa; [7]) of 0.5 and a fold induction at 50 µM (E. cloacae; [8]) of 0.5. The fold induction at 50 µM (E. coli; [9]) was 0.6.
Molecule `COc1cc2nc(N3CCN(C(=O)C4COc5ccccc5O4)CC3)nc(N)c2cc1OC` (stereo not drawn) [Doxazosin mesylate] has a fold induction at 50 µM (E. faecium; [10]) of 1.1, a fold induction at 50 µM [1, 11] of 1.2 and a fold induction at 50 µM (K. pneumoniae; [12]) of 0.9. It also gave a fold induction at 50 µM [2, 13] of 1.3, a fold induction at 50 µM (P. aeruginosa; [14]) of 1.1 and a fold induction at 50 µM (E. cloacae; [15]) of 1.5. The fold induction at 50 µM (E. coli; [16]) was 1.4.
With `CN(C)CCC=C1c2ccccc2COc2ccccc21` [Doxepin hydrochloride] the fold induction at 50 µM (E. faecium; [17]) was 1, the fold induction at 50 µM [1, 18] was 0.9 and the fold induction at 50 µM (K. pneumoniae; [19]) was 0.8. It also gave a fold induction at 50 µM [2, 20] of 0.9, a fold induction at 50 µM (P. aeruginosa; [21]) of 1.1 and a fold induction at 50 µM (E. cloacae; [22]) of 1. The fold induction at 50 µM (E. coli; [23]) was 1.1.
`COc1cccc2c1C(=O)c1c(O)c3c(c(O)c1C2=O)C[C@@](O)(C(=O)CO)C[C@@H]3O[C@H]1C[C@H](N)[C@H](O)[C@H](C)O1` [Doxorubicin hydrochloride] showed a fold induction at 50 µM (E. faecium; [3]) of 1.7, a fold induction at 50 µM [1, 4] of 0.9 and a fold induction at 50 µM (K. pneumoniae; [5]) of 0.7. It also gave a fold induction at 50 µM [2, 6] of 1, a fold induction at 50 µM (P. aeruginosa; [7]) of 0.6 and a fold induction at 50 µM (E. cloacae; [8]) of 1.2. For the same molecule, the fold induction at 50 µM (E. coli; [9]) was 1.
For `CCO.C[C@H]1c2cccc(O)c2C(O)=C2C(=O)[C@]3(O)C(O)=C(C(N)=O)C(=O)[C@@H](N(C)C)[C@@H]3[C@@H](O)[C@@H]21.C[C@H]1c2cccc(O)c2C(O)=C2C(=O)[C@]3(O)C(O)=C(C(N)=O)C(=O)[C@@H](N(C)C)[C@@H]3[C@@H](O)[C@@H]21.Cl.Cl.O` [Doxycycline hyclate], the “AK-based Prestwick Library Screening Results, E. faecium (fold increase in extracellular AK activity)” value (E. faecium; [24]) was 1.1, the “AK-based Prestwick Library Screening Results, S. aureus (fold increase in extracellular AK activity)” value [1, 24] was 9.4 and the “AK-based Prestwick Library Screening Results, K. pneumoniae (fold increase in extracellular AK activity)” value (K. pneumoniae; [24]) was 0.3. For the same molecule, the “AK-based Prestwick Library Screening Results, A. baumannii (fold increase in extracellular AK activity)” value [2, 24] was 3.4, the “AK-based Prestwick Library Screening Results, P. aeruginosa (fold increase in extracellular AK activity)” value (P. aeruginosa; [24]) was 0.7 and the “AK-based Prestwick Library Screening Results, E. cloacae (fold increase in extracellular AK activity)” value (E. cloacae; [24]) was 1.5. For the same molecule, the “AK-based Prestwick Library Screening Results, E. coli (fold increase in extracellular AK activity)” value (E. coli; [24]) was 2.0.
`CN(C)CCOC(C)(c1ccccc1)c1ccccn1` (stereo not drawn) [Doxylamine succinate] was tested, and the fold induction at 50 µM (E. faecium; [17]) was 0.9, the fold induction at 50 µM [1, 18] was 0.7 and the fold induction at 50 µM (K. pneumoniae; [19]) was 0.6. The fold induction at 50 µM [2, 20] was 0.8, the fold induction at 50 µM (P. aeruginosa; [21]) was 0.8 and the fold induction at 50 µM (E. cloacae; [22]) was 1. The fold induction at 50 µM (E. coli; [23]) was 0.8.
For `CCN(CC)CCOC(=O)C(c1ccccc1)C1CCCCC1` (stereo not drawn) [Drofenine hydrochloride], the fold induction at 50 µM (E. faecium; [10]) was 1, the fold induction at 50 µM [1, 11] was 1.5 and the fold induction at 50 µM (K. pneumoniae; [12]) was 1.2. It also gave a fold induction at 50 µM [2, 13] of 1.3, a fold induction at 50 µM (P. aeruginosa; [14]) of 1.2 and a fold induction at 50 µM (E. cloacae; [15]) of 1.5. It also gave a fold induction at 50 µM (E. coli; [16]) of 1.5.
`O=C(CCCN1CC=C(n2c(=O)[nH]c3ccccc32)CC1)c1ccc(F)cc1` [Droperidol] gave a fold induction at 50 µM (E. faecium; [3]) of 1, a fold induction at 50 µM [1, 4] of 0.9 and a fold induction at 50 µM (K. pneumoniae; [5]) of 0.7. It also gave a fold induction at 50 µM [2, 6] of 1, a fold induction at 50 µM (P. aeruginosa; [7]) of 0.7 and a fold induction at 50 µM (E. cloacae; [8]) of 1.2. It also gave a fold induction at 50 µM (E. coli; [9]) of 0.9.
`COc1c2c(nc3ccccc13)OC(C(C)(O)CO)C2` (stereo not drawn) [Dubinidine] was tested, and the “AK-based Prestwick library screening result, E. faecium (fold increase in extracellular AK activity)” value (E. faecium; planktonic E. faecium, positive cutoff 3-fold increase) was 1.0, the “AK-based Prestwick library screening result, S. aureus (fold increase in extracellular AK activity)” value ([1]; planktonic S. aureus, positive cutoff 3-fold increase) was 2.4 and the “AK-based Prestwick library screening result, K. pneumoniae (fold increase in extracellular AK activity)” value (K. pneumoniae; planktonic K. pneumoniae, positive cutoff 3-fold increase) was 0.9. For the same molecule, the “AK-based Prestwick library screening result, A. baumannii (fold increase in extracellular AK activity)” value ([2]; planktonic A. baumannii, positive cutoff 3-fold increase) was 1.1, the “AK-based Prestwick library screening result, P. aeruginosa (fold increase in extracellular AK activity)” value (P. aeruginosa; planktonic P. aeruginosa, positive cutoff 3-fold increase) was 1.0 and the “AK-based Prestwick library screening result, E. cloacae (fold increase in extracellular AK activity)” value (E. cloacae; planktonic E. cloacae, positive cutoff 3-fold increase) was 1.3. For the same molecule, the “AK-based Prestwick library screening result, E. coli (fold increase in extracellular AK activity)” value (E. coli; planktonic E. coli, […]) was 1.4.
In the case of `CCCCOc1ccc(C(=O)CCN2CCCCC2)cc1` [Dyclonine hydrochloride], the fold induction at 50 µM (E. faecium; [17]) is reported as 1, the fold induction at 50 µM [1, 18] is reported as 0.9 and the fold induction at 50 µM (K. pneumoniae; [19]) is reported as 0.7. It also gave a fold induction at 50 µM [2, 20] of 0.9, a fold induction at 50 µM (P. aeruginosa; [21]) of 1 and a fold induction at 50 µM (E. cloacae; [22]) of 1.1. For the same molecule, the fold induction at 50 µM (E. coli; [23]) was 1.
